No end group written: not given here.
Key:
Format in all cases: binding
[1] = molecular target: T1, Rvs167 SH3 domain (GST-fused) (Saccharomyces cerevisiae, UniProt P39743); experiment: Surface plasmon resonance (BIAcoreX) dissociation constants of peptides, Rvs167 SH3 domain; conditions: Figure 4A; SPR BIAcoreX, GST-SH3 coupled to CM5 chip, GST control; peptides in 10 mM HEPES, 150 mM NaCl, 3.4 mM EDTA, 0.005% P20, pH 7.4, 25°C; steady-state model; read-out: dissociation constant, SH3 DOMAINS RVS167
T1 construct: Experiments were carried out on sensor chips with GST-fused SH3 domains and GST as a control; made in house
Protocol: (§1) Figure 4 Measurement of Dissociation Constants and Correlation with SPOT Intensities (A) Dissociation constants were measured with a BIAcoreX instrument as described in the Materials and Methods. The experiments with the Abp1 SH3 domain were carried out in triplicate. (B) Normalized BLU intensities plotted as a function of the log of the dissociation constant.
(§2) Surface plasmon resonance measurements were carried out with a BIAcoreX instrument (BIAcore, Uppsala, Sweden). Experiments were carried out on sensor chips with GST-fused SH3 domains and GST as a control. […] Interaction analysis was performed at 25°C with the peptides dissolved in 10 mM HEPES, 150 mM NaCl, 3.4 mM EDTA, and 0.005% surfactant P20 (pH 7.4), at 15 μl/min flow rate, using six to seven dilutions, ranging from 500 μM to 65 nM. Dissociation constant values were evaluated by applying the steady-state model using BIAcore evalution 3.1 software.

[2] = molecular target: T2, Yfr024c SH3 domain (GST-fused) (Saccharomyces cerevisiae, UniProt P43603); experiment: Surface plasmon resonance (BIAcoreX) dissociation constants of peptides, Yfr024c SH3 domain; conditions: Figure 4A; SPR BIAcoreX, GST-SH3 coupled to CM5 chip, GST control; peptides in 10 mM HEPES, 150 mM NaCl, 3.4 mM EDTA, 0.005% P20, pH 7.4, 25°C; steady-state model; read-out: dissociation constant, SH3 DOMAINS YFR024C
T2 construct: Experiments were carried out on sensor chips with GST-fused SH3 domains and GST as a control; made in house
T2 sequence (P43603 400-459 limits assumed): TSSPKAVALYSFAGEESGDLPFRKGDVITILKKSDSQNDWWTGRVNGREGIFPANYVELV
Protocol: as §1, §2

[3] = molecular target: T3, Ysc84 SH3 domain (GST-fused) (Saccharomyces cerevisiae, UniProt P32793); experiment: Surface plasmon resonance (BIAcoreX) dissociation constants of peptides, Ysc84 SH3 domain; conditions: Figure 4A; SPR BIAcoreX, GST-SH3 coupled to CM5 chip, GST control; peptides in 10 mM HEPES, 150 mM NaCl, 3.4 mM EDTA, 0.005% P20, pH 7.4, 25°C; steady-state model; read-out: dissociation constant, SH3 DOMAINS YSC84
T3 construct: Experiments were carried out on sensor chips with GST-fused SH3 domains and GST as a control; made in house
T3 sequence (P32793 409-468 limits assumed): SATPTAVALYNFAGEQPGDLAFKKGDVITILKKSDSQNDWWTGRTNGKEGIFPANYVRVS
Protocol: as §1, §2

[4] = molecular target: T4, Boi2 SH3 domain (GST-fused) (Saccharomyces cerevisiae, UniProt P39969); experiment: Surface plasmon resonance (BIAcoreX) dissociation constants of peptides, Boi2 SH3 domain; conditions: Figure 4A; SPR BIAcoreX, GST-SH3 coupled to CM5 chip, GST control; peptides in 10 mM HEPES, 150 mM NaCl, 3.4 mM EDTA, 0.005% P20, pH 7.4, 25°C; steady-state model; read-out: dissociation constant, SH3 DOMAINS BOI2
T4 construct: Experiments were carried out on sensor chips with GST-fused SH3 domains and GST as a control; made in house
T4 sequence (P39969 43-107 limits assumed): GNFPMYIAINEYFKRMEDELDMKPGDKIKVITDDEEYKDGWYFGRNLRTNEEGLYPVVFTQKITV
Protocol: as §1, §2

T1 sequence (P39743 421-482 limits assumed): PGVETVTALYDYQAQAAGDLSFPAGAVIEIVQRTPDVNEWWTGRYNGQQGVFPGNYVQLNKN

| Sequence | Kd [1] | Kd [2] | Kd [3] | Kd [4] |
| --- | --- | --- | --- | --- |
| DIKTRSVPKIPSIE [DEM1 DIKTRSVPKIPSIE] | > 100 µM | > 100 µM | > 100 µM | > 100 µM |
| NIQPDLPPRKIMIP [YBR239C NIQPDLPPRKIMIP] | 39 µM | 22 µM | 16 µM | > 100 µM |
| PQQNRPLPQLPNRN [LAS17 PQQNRPLPQLPNRN] | 32 µM | 19 µM | 27 µM | > 100 µM |
| RAVPILPPRNNVEP [YBR108W RAVPILPPRNNVEP] | 39 µM | 14 µM | 13 µM | > 100 µM |
| RPLPQLPNRNNRPV [LAS17 RPLPQLPNRNNRPV] | 30 µM | 8.9 µM | 9.6 µM | > 100 µM |
| SSPPPLPTRRDHIK [YPR171 SSPPPLPTRRDHIK] | 16 µM | 4.8 µM | 3.3 µM | > 100 µM |
| STPPTLPPRRIEDP [YMR192 STPPTLPPRRIEDP] | 28 µM | 11 µM | 9.1 µM | > 100 µM |

Now those with a lower Kd [2], led by results:

| Kd [1] | Kd [2] | Kd [3] | Kd [4] | Sequence |
| --- | --- | --- | --- | --- |
| 6.3 µM | 1.7 µM | 1.1 µM | > 100 µM | GTTNRGPPPLPPRA [ACF2 GTTNRGPPPLPPRA] |
| 56 µM | 4.2 µM | 13 µM | > 100 µM | NAPERAVPILPPRN [YBR108W NAPERAVPILPPRN] |
| – | 1.3 µM | 1.6 µM | > 100 µM | RGPPPLPPRANVQP [ACF2 RGPPPLPPRANVQP] |
| 16 µM | 3.5 µM | 5 µM | > 100 µM | SGPPLLPPRNTMKN [YJR083C SGPPLLPPRNTMKN] |

Source: paper PMC314469, “Protein Interaction Networks by Proteome Peptide Scanning” (PLoS Biology, 2004)
